Laboratory results published in patent publication US20250041415A1, “CYTOTOXIC INNATE LYMPHOID CELL AND USES THEREOF” (Umoja Biopharma, Inc., priority 2021, published 2025).

How the values were obtained:
[1] = tested on: common lymphoid progenitors (iPSC line WTC11); test: RACR-signaling replacing common gamma chain cytokines in CLP to CIL differentiation; assay type: cell-based, human; settings: 4 nM
[2] = tested on: iPSC-derived lymphoid progenitor and precursor cells; test: RACR-driven differentiation and expansion of iCIL cells from Day 26 lymphoid progenitors; assay type: cell-based, human; settings: AP21967 100 nM, no other cytokine
Excerpt: The RACR-system was utilized for differentiation to iPSC-derived CIL cells (iCIL cells). The iPSC cell line ATCC-BXS0117 (ATCC #ACS-1031) was differentiated into lymphoid progenitors through the STEMdiff NK cell kit ([…]® Technologies, #100-0170) as described in Example 2 above, up until the Day 26 timepoint. The percentage of cells containing common lymphoid progenitors (CD45+/CD5+/CD7+), CIL precursors (CD45+/CD5−/CD7+), and early CIL cells (CD45+/CD5−/CD7+/CD56+) is seen in FIG. 3D with ˜50% of the cells presenting as CIL precursors and ˜25% of total cells presenting as early CIL cells. […] Activation beads (#130-094-483) were added to cells at a 2:1 ratio and cells were placed in 37° C. incubator overnight to increase transduction of cells.
The cells were engineered with a polynucleotide encoding the RACR synthetic cytokine as described in Example 1, a Tag (anti-FITC) CAR (SEQ ID NO: 13), and an FRB domain for expression of FRB as a diffusible soluble protein in the engineered cell, in which the components were separated by a cleavable linker. The polynucleotide construct payload is designated Tag (anti-FITC) CAR-P2A-FRB-P2A-RACR. […] An aliquot of cells was collected weekly, counted on the Vicell Blu automated cell counter, and stained for CD16 clone 3G8, CD56 clone HCD56, CD45 clone 2D1. […]

[3] = tested on: Vδ2+ T cells transduced with RACR-FRB-mCherry; test: RACR-expansion of blood-derived Vδ2+ T cells; assay type: cell-based, human; settings: 10 nM, days 14 and 21
Description: On day 14, an aliquot of the cells was collected and washed, stained for V32, and RACR transduction was measured by mCherry. Percent Vδ2+ RACR+ cells, as well as number of transduced V32+ cells measured by counting beads was assessed by detection of V82 stain and mCherry via flow cytometry. Similarly, on day 21, an aliquot of cells was again measured for percent and number of Vδ2+ RACR+ cells via flow cytometry.

[4] = tested on: PSMA-positive human prostate cancer cells; settings: DUPA-(99m)Tc; cited from earlier work

SMILES | percent of RACR-CAR+ CD56+ cells ([1]; Day 40, all four media conditions) | fold change in RACR-CAR+ cells ([1]; media with UM729 alone (None)) | expansion (total number of TagCAR positive cells) [2] | percentage and total number of Vδ2+ RACR+ cells [3] | Kd [4] [nM]
CO[C@@H]1C[C@H](C[C@@H](C)C2CC(=O)[C@H](C)/C=C(\C)[C@@H](O)[C@@H](OC)C(=O)[C@H](C)C[C@@H](C)/C=C/C=C/C=C(\C)[C@H](c3c[nH]c4c(C)cccc34)C[C@H]3CC[C@@H](C)[C@@](O)(O3)C(=O)C(=O)N3CCCC[C@H]3C(=O)O2)CC[C@@H]1O (some centres unmarked) [AP21967] | increase in the percent of RACR-CAR+ CD56+ cells | largest fold change | sufficient to drive iCIL expansion | increased in both percentage and total number of cells | –
O=C(O)CC[C@H](NC(=O)N[C@@H](CCC(=O)O)C(=O)O)C(=O)O [DUPA] | – | – | – | – | 14
